In brackets after ≈: the same amount, converted by molar mass.
What was measured:
Type in all cases: cell-based
[1] = system: Staphylococcus aureus 209 P; assay: Minimum Inhibitory Concentration, Staphylococcus aureus 209 P; settings: Staphylococcus aureus 209 P; read-out: Minimum Inhibitory Concentration
Method: (§1) anti-microbial activity tests were carried out on the compounds obtained in the Examples.

[2] = system: Staphylococcus aureus FS 289; assay: Minimum Inhibitory Concentration, Staphylococcus aureus FS 289; settings: FS289; Staphylococcus aureus FS 289, strain resistant to penicillin; read-out: Minimum Inhibitory Concentration
Method: as §1
*Staphylococcus aureus FS 289: strain resistant to penicillin

[3] = system: Escherichia coli NIHJ; assay: Minimum Inhibitory Concentration, Escherichia coli NIHJ; settings: Escherichia coli NIHJ; read-out: Minimum Inhibitory Concentration
Method: as §1

[4] = system: Klebsiella pneumoniae 602; assay: Minimum Inhibitory Concentration, Klebsiella pneumoniae 602; settings: Klebsiella pneumoniae, 602, Klebsiella pneumoniae 602; read-out: Minimum Inhibitory Concentration
Method: as §1

[5] = system: Proteus vulgaris HX 19; assay: Minimum Inhibitory Concentration, Proteus vulgaris HX 19; settings: HX19; Proteus vulgaris HX 19; read-out: Minimum Inhibitory Concentration
Method: as §1

[6] = system: Pseudomonas aeruginosa 104; assay: Minimum Inhibitory Concentration, Pseudomonas aeruginosa 104; settings: Pseudomonas aeruginosa 104; read-out: Minimum Inhibitory Concentration
Method: as §1

[7] = system: Serratia No. 72; assay: Minimum Inhibitory Concentration, Serratia No. 72
Method: as §1

[8] = system: Enterobacter aerogeneus No. 75; assay: Minimum Inhibitory Concentration, Enterobacter aerogeneus No. 75; settings: Enterobacter aerogeneus No. 75; read-out: Minimum Inhibitory Concentration
Method: as §1

Structure (SMILES) | MIC [1] | MIC [2] | MIC [3] | MIC [4] | MIC [5] | MIC [6] | MIC [7] | MIC [8]
CSc1ncc2c(O)c(C(=O)NC(C(=O)NC3C(=O)N4C(C(=O)O)=C(CSc5nnnn5C)CSC34)c3cccc(O)c3)cnc2n1 (centres unmarked) [Example 162] | 1.56 µg/mL (≈ 2.24 µM) | 12.5 µg/mL (≈ 17.9 µM) | 12.5 µg/mL (≈ 17.9 µM) | 6.25 µg/mL (≈ 8.97 µM) | 0.78 µg/mL (≈ 1.12 µM) | 6.25 µg/mL (≈ 8.97 µM) | 50 µg/mL (≈ 71.8 µM) | 25 µg/mL (≈ 35.9 µM)
Cn1nnnc1SCC1=C(C(=O)O)N2C(=O)C(NC(=O)C(NC(=O)c3cnc4nc(N5CCNCC5)ncc4c3O)c3ccc(O)cc3)C2SC1 (centres unmarked) [Example 163] | 1.56 µg/mL (≈ 2.12 µM) | 12.5 µg/mL (≈ 17 µM) | 12.5 µg/mL (≈ 17 µM) | 6.25 µg/mL (≈ 8.51 µM) | 0.39 µg/mL (≈ 0.531 µM) | 6.25 µg/mL (≈ 8.51 µM) | 50 µg/mL (≈ 68 µM) | 25 µg/mL (≈ 34 µM)
CN(C)c1ccc2ncc(C(=O)NC(C(=O)NC3C(=O)N4C(C(=O)O)=C(CSc5nnnn5C)CSC34)c3ccc(O)cc3)c(O)c2n1 (centres unmarked) [Example 166] | 0.78 µg/mL (≈ 1.13 µM) | 6.25 µg/mL (≈ 9.02 µM) | 3.13 µg/mL (≈ 4.52 µM) | 1.56 µg/mL (≈ 2.25 µM) | 0.2 µg/mL (≈ 0.289 µM) | 3.13 µg/mL (≈ 4.52 µM) | 12.5 µg/mL (≈ 18 µM) | 3.13 µg/mL (≈ 4.52 µM)
Cn1nnnc1SCC1=C(C(=O)O)N2C(=O)C(NC(=O)C(NC(=O)c3cnc4cccnc4c3O)c3ccc(O)c(O)c3)C2SC1 (centres unmarked) [Example 167] | 1.56 µg/mL (≈ 2.34 µM) | 6.25 µg/mL (≈ 9.39 µM) | 1.56 µg/mL (≈ 2.34 µM) | 1.56 µg/mL (≈ 2.34 µM) | 0.2 µg/mL (≈ 0.3 µM) | 3.13 µg/mL (≈ 4.7 µM) | 12.5 µg/mL (≈ 18.8 µM) | 3.13 µg/mL (≈ 4.7 µM)
Cc1ccc2c(O)c(C(=O)NC(C(=O)NC3C(=O)N4C(C(=O)O)=C(CSc5nnc(C)s5)CSC34)c3cccc(O)c3)cnc2n1 (centres unmarked) [Example 168] | 1.56 µg/mL (≈ 2.29 µM) | 12.5 µg/mL (≈ 18.4 µM) | 12.5 µg/mL (≈ 18.4 µM) | 6.25 µg/mL (≈ 9.19 µM) | 0.78 µg/mL (≈ 1.15 µM) | 12.5 µg/mL (≈ 18.4 µM) | 50 µg/mL (≈ 73.6 µM) | 25 µg/mL (≈ 36.8 µM)
O=C(O)C1=C(CSc2cnn[nH]2)CSC2C(NC(=O)C(NC(=O)c3cnc4cccnc4c3O)c3cccc(O)c3)C(=O)N12 (centres unmarked) [Example 169] | 0.78 µg/mL (≈ 1.23 µM) | 6.25 µg/mL (≈ 9.85 µM) | 3.13 µg/mL (≈ 4.93 µM) | 1.56 µg/mL (≈ 2.46 µM) | 0.1 µg/mL (≈ 0.158 µM) | 3.13 µg/mL (≈ 4.93 µM) | 25 µg/mL (≈ 39.4 µM) | 3.13 µg/mL (≈ 4.93 µM)
O=C(O)C1=C(CSc2ccc(O)nn2)CSC2C(NC(=O)C(NC(=O)c3cnc4cccnc4c3O)c3ccc(O)cc3)C(=O)N12 (centres unmarked) [Example 170] | 0.78 µg/mL (≈ 1.18 µM) | 6.25 µg/mL (≈ 9.45 µM) | 6.25 µg/mL (≈ 9.45 µM) | 1.56 µg/mL (≈ 2.36 µM) | 0.1 µg/mL (≈ 0.151 µM) | 3.13 µg/mL (≈ 4.73 µM) | 25 µg/mL (≈ 37.8 µM) | 6.25 µg/mL (≈ 9.45 µM)

The remaining compounds from weak to strong by MIC [1], led by results:

MIC [1] | MIC [2] | MIC [3] | MIC [4] | MIC [5] | MIC [6] | MIC [7] | MIC [8] | Structure (SMILES)
0.78 µg/mL (≈ 1.09 µM) | 12.5 µg/mL (≈ 17.5 µM) | 12.5 µg/mL (≈ 17.5 µM) | 6.25 µg/mL (≈ 8.77 µM) | 1.56 µg/mL (≈ 2.19 µM) | 12.5 µg/mL (≈ 17.5 µM) | 50 µg/mL (≈ 70.2 µM) | 12.5 µg/mL (≈ 17.5 µM) | CSc1nc(O)c2c(O)c(C(=O)NC(C(=O)NC3C(=O)N4C(C(=O)O)=C(CSc5nnnn5C)CSC34)c3ccc(O)cc3)cnc2n1 (centres unmarked) [Example 160]
0.78 µg/mL (≈ 1.15 µM) | 12.5 µg/mL (≈ 18.5 µM) | 6.25 µg/mL (≈ 9.25 µM) | 3.13 µg/mL (≈ 4.63 µM) | 0.39 µg/mL (≈ 0.577 µM) | 6.25 µg/mL (≈ 9.25 µM) | 50 µg/mL (≈ 74 µM) | 12.5 µg/mL (≈ 18.5 µM) | Cc1cc(C(NC(=O)c2cnc3cccnc3c2O)C(=O)NC2C(=O)N3C(C(=O)O)=C(CSc4ccc(O)nn4)CSC23)ccc1O (centres unmarked) [Example 161]
0.78 µg/mL (≈ 1.15 µM) | 6.25 µg/mL (≈ 9.2 µM) | 3.13 µg/mL (≈ 4.6 µM) | 1.56 µg/mL (≈ 2.3 µM) | 0.2 µg/mL (≈ 0.294 µM) | 3.13 µg/mL (≈ 4.6 µM) | 12.5 µg/mL (≈ 18.4 µM) | 3.13 µg/mL (≈ 4.6 µM) | COc1ccc2ncc(C(=O)NC(C(=O)NC3C(=O)N4C(C(=O)O)=C(CSc5nnnn5C)CSC34)c3cccc(O)c3)c(O)c2n1 (centres unmarked) [Example 164]
0.78 µg/mL (≈ 1.1 µM) | 6.25 µg/mL (≈ 8.78 µM) | 3.13 µg/mL (≈ 4.4 µM) | 3.13 µg/mL (≈ 4.4 µM) | 0.2 µg/mL (≈ 0.281 µM) | 3.13 µg/mL (≈ 4.4 µM) | 12.5 µg/mL (≈ 17.6 µM) | 6.25 µg/mL (≈ 8.78 µM) | COc1ccc2ncc(C(=O)NC(C(=O)NC3C(=O)N4C(C(=O)O)=C(CSc5nnc(CO)s5)CSC34)c3ccc(O)cc3)c(O)c2n1 (centres unmarked) [Example 165]
0.39 µg/mL (≈ 0.595 µM) | 12.5 µg/mL (≈ 19.1 µM) | 6.25 µg/mL (≈ 9.53 µM) | 1.56 µg/mL (≈ 2.38 µM) | 0.39 µg/mL (≈ 0.595 µM) | 6.25 µg/mL (≈ 9.53 µM) | 25 µg/mL (≈ 38.1 µM) | 12.5 µg/mL (≈ 19.1 µM) | Cn1nnnc1SCC1=C(C(=O)O)N2C(=O)C(NC(=O)C(NC(=O)c3cnc4scnc4c3O)c3ccc(O)cc3)C2SC1 (centres unmarked) [Example 158]
0.39 µg/mL (≈ 0.596 µM) | 12.5 µg/mL (≈ 19.1 µM) | 6.25 µg/mL (≈ 9.55 µM) | 3.13 µg/mL (≈ 4.78 µM) | 0.78 µg/mL (≈ 1.19 µM) | 6.25 µg/mL (≈ 9.55 µM) | 50 µg/mL (≈ 76.4 µM) | 12.5 µg/mL (≈ 19.1 µM) | Cn1nnnc1SCC1=C(C(=O)O)N2C(=O)C(NC(=O)C(NC(=O)c3cnc4sccc4c3O)c3ccc(O)cc3)C2SC1 (centres unmarked) [Example 159]
